From patent US20190314311A1, “PHARMACEUTICAL COMPOSITION” (JAPAN SCIENCE AND TECHNOLOGY AGENCY, priority 2016, published 2019) come the findings set out here.

Experiment [1] concerns SCA1 mice. Description: immunohistochemical analysis of PolyQ inclusion bodies in brain. The class given is in vivo, mouse. Particulars: 12-week-old SCA1 mice, 6% arginine in drinking water from 3 weeks. The protocol:
It was reported that SCA1 mice develop polyQ inclusion bodies (PolyQ protein aggregates) in their neurons of the cerebral cortex and hippocampus from around 4 weeks of age (Non-Patent Document 15).
PolyQ inclusion bodies in brain sections were detected using immunohistochemical analysis. First, ten-micrometer-thick frozen sections of 12 week-old SCA1 mouse brains were prepared according to the method described in Non-Patent Document 17. The sections were blocked in PBS containing 5% goat serum and 0.1% Triton X-100 for 1 hour at room temperature, then incubated with a rabbit anti-ubiquitin antibody (clone FK2, 1:500) at 4° C. overnight, followed by an Alexa Fluor 488-conjugated goat anti-rabbit IgG antibody (1:1,000, Life Technologies) for 1 hour at room temperature. […]
By confocal laser scanning microscopy, inclusion bodies stained with the anti-ubiquitin antibody can be visualized. Therefore, the sections were observed using a confocal laser scanning microscope, cells included in the field of view were counted, and the percentage (%) of the cells in which the inclusion bodies were formed to the total number of cells was measured. In each mouse, the cell count was averaged for 3 fields of view, in which over 130 or 70 cells were counted in the cortex or hippocampus, respectively. […]

The subject of experiment [2] is Q40-GFP expressing nematode line. Put plainly: SDD-AGE of polyQ oligomers in nematode lysates. The class given is in vivo, Caenorhabditis elegans. To be noted: 10 mM arginine. The protocol:
SDD-AGE was performed as follows. First, nematodes were lysed in lysis buffer (0.5% SDS, 0.5% NP-40, 50 mM Tris-HCl, 150 mM NaCl, 5 mM EDTA, protease inhibitor cocktail), the resulting lysate was run on a 1% agarose gel with 0.01% SDS in a running buffer of Tris-Glycine containing 0.01% SDS, and then transferred overnight onto a nitrocellulose membrane. For subsequent western blot analysis, the membrane was incubated with the anti-GFP antibody (MBL Life sciences) at 10,000 dilution as the primary antibody at 4° C. overnight, and then with the HRP-conjugated anti-rabbit IgG antibody (MBL Life sciences) at 20,000 dilution as the secondary antibody. Immunoblots were imaged using the Lumino image analyzer system “ImageQuant LAS 4000” (GE Healthcare Life Sciences) and analyzed using “ImageQuantTL” (GE Healthcare Life Sciences).

In experiment [3] the test system is SCA1 mice. Description: rotarod test, arginine from 3 weeks of age. The class given is in vivo, mouse. To be noted: 6% by weight arginine in drinking water from 3 weeks of age. An excerpt:
SCA1 mice express the abnormally expanded polyQ protein (the mutant ataxin 1 protein with polyQ repeats consisting of 154 glutamines) at endogenous levels and with accurate temporal and spatial patterns, and replicates numerous aspects of the human disease including progressive motor deficit. The SCA1 mice used in this experiment were a kind gift from Dr. Kei Watase (Tokyo Medical and Dental University, Japan).
Rotarod tests have been previously utilized for the assessment of motor function in SCA1 mice (Non-Patent Document 15).
For rotarod analysis, mice were tested on an accelerating rotarod apparatus (Ugo Basile) and performed according to the method described in Non-Patent Document 17. The time courses of the amount of walking time until wild type mice and SCA1 mice fell from the rotarod (Latency) are shown in FIG. 17. […] In the figure, values represent means±SEM (n=16-18), “**” represents p<0.01, and “***” represents p<0.001, respectively.
Background: The rotarod test checks motor coordination on a turning rod.

For experiment [4], the system named is Thio-Q62 protein. Put plainly: protein aggregation turbidity assay. The class given is biochemical. Particulars: 8.2 μM Thio-Q62, 600 mM arginine, PBS, 37° C., neutral pH, 5 days. The protocol: In the subsequent experiments, the protein aggregation turbidity assay was performed by the method described in Non-Patent Document 6. Specifically, it was performed as follows.
A solution in which abnormally expanded proteins were dissolved in physiological saline phosphate (PBS) was used as a measurement sample. The solution was incubated at 37° C., and turbidity at 405 nm was measured every 24 hours using a microplate reader “Spectramax Plus plate reader” (Molecular Devices Inc.).
As an abnormally expanded PolyQ protein, a Thioredoxin-Q62 (Thio-Q62) fusion protein consisting of Thioredoxin and a PolyQ stretch with 62 glutamines was used.
As a control, Thio-Q62 protein alone was incubated in the same manner, and the turbidity was measured every 24 hours.
As controls, a solution containing Thio-Q62 protein alone, and a solution containing Thio-Q62 protein and 400 mM proline were incubated in the same manner, respectively, and turbidity was measured after 5 days. […] The relative turbidity (%) of each solution was measured. The turbidity of the solution containing Thio-Q62 protein alone was set to 100%. In the figure, values represent means±SEM (n=3). “*” represents p<0.05, “***” represents p<0.001, “n.s.” represents not significant.

For experiment [5], the system named is MJDtr-Q78(S) flies. Description: Drosophila model of the PolyQ diseases (SCA3/MJD). Type of experiment: in vivo, Drosophila melanogaster. As for the experimental part: The spinocerebellar ataxia type 3 (SCA3/MJD) model flies were used, which express the truncated form of the MJD protein with an abnormally expanded polyQ repeat consisting of 78 glutamines (MJDtr-Q78) in the compound eye (Non-Patent Document 12). The severe compound eye degeneration induced by MJDtrQ78 can be easily detected under the light microscope.
Fly culture and crosses were performed under standard conditions at 25° C. The MJDtr-Q78(S) transgenic fly line bearing the UAS-MJDtr-Q78 transgene for expression of MJDtr-Q78 described in Non-Patent Document 12 was used. The fly line bearing the gmr-GAL4 transgene was obtained from the Drosophila Genetic Resource Center at Kyoto Institute of Technology, Japan. […] For evaluation of compound eye degeneration, light microscopic images of the compound eye were taken using a stereoscopic microscope model “SZX9” (Olympus). For detection of the MJDtr-Q78 protein in eye imaginal discs of third instar larvae, immunostaining with an anti-hemagglutinin antibody (clone 3F10, Roche) was performed according to the method described in Non-Patent Document 13. Fluorescence microscopic images were taken using a confocal laser scanning microscope model “LSM510” (Carl Zeiss).

For the compound `N=C(N)NCCC[C@H](N)C(=O)O` [arginine], in experiment [1], the “percentage of cells with inclusion body formation, cerebral cortex” value is given as “significantly decreased” and the “percentage of cells with inclusion body formation, hippocampus” value was “significantly decreased”. Also, in experiment [2], the “smear intensity by image analysis” value was “became smaller”; the “smear of Q40-GFP oligomers (SDD-AGE image)” value is “much lighter and less broad smear”. The “motor function, rotarod latency” value in experiment [3] (4 to 12 weeks of age) is “significantly better than the untreated mice”. Further, the “therapeutic effect on rotarod, duration” value in experiment [3] (until 28 weeks of age) is “remained significant until 28 weeks of age”. For the same compound, in experiment [4], the “lag phase of turbidity time course” value is listed as “elongated the lag phase” and the “speed of aggregation (turbidity time course)” value is “decreased the speed of aggregation”. The “number of inclusion bodies in eye discs of larvae” value in experiment [5] (food containing arginine (100 mM in FIG. 10)) is on record as “decreased”. Besides, in experiment [5] (food containing either 25, 50 or 100 mM arginine), the compound eye degeneration entry was “remarkably ameliorated”.
